Reference: PubChem BioAssay AID179 (DTP/NCI, 2004)
Values joined by “and” are separate entries in the source; they are usually repeats but may differ in a detail not shown here. Equal entries are not always repeated. Active and inactive are the calls of the source.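 How the source made its calls: active means compounds giving half or more protection of infected cells from virus-caused growth loss, again on retest; inactive means the rest.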

Test system: CEM cells HIV-1 protection, formazan growth assay
Assay: NCI AIDS Antiviral Assay
Settings: for IC50: measured here: growth of uninfected CEM cells
Procedure, shortened: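 Soluble formazan readout of cell growth; CEM cells ± HIV-1; 5 drug concs. ≥50% protection → retest; ≥50% again = moderately active; reproducible 100% = confirmed active.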

Structure (SMILES)	EC50 [µM]	IC50	outcome
O=C1OC2(CCCCC2)c2ccccc21	> 339	186 µM	–
COC(=O)c1ccc(NCc2cc(O)ccc2O)cc1	> 200	11.7 µM	–
Nc1nc(=O)n(C2CCC(CO)O2)cc1F (centres undefined)	0.151	32.4 µM	–
CC1(CO)COS(=O)OC1 (centres undefined)	> 214	> 214 µM	–
C[N+](C)(C)/N=C/c1ccc(O)c(O)c1	> 200	> 200 µM	–
COc1cc(/C=C/C(=O)CC(=O)/C=C/c2ccc(O)c(OC)c2)ccc1O	> 200	19.1 µM and 75.9 µM	–
CC1(C)CCC2(C)N(c3ccccc3)C(=O)ON12 (centres undefined)	> 200	> 200 µM	–
CN(CCNC(=O)c1cn(C)c2c1ccc1ccccc12)CCNC(=O)c1cn(C)c2c1ccc1ccccc12	> 200	3.09 µM	–
Cc1cccc2c1C(=O)OC2(C)c1cccc2ccccc12 (centres undefined)	–	–	inactive
COC(=O)c1cc(=O)n(C)c2ccc(OC)cc12	> 200	166 µM	–
C=Cc1ccncc1	> 200	> 200 µM	–
Cc1ccc(NC2=NCCO2)c2c1CCC2	> 200	33.9 µM	–
CC(C)=CC(C(O)c1ccccc1)S(=O)(=O)c1nccn1C (centres undefined)	> 407	> 407 µM	–
CN1CCN(CCCN2CC(=O)N3Cc4ccccc4CN3C(=O)C2)CC1	> 200	> 200 µM	–
NCC1OC(OC2C(N)CC(N)C(O)C2OC2OC(CO)C(O)C2O)C(N)C(O)C1O (centres undefined)	–	–	inactive
CCOC(=O)/C(C1=N[C@H](C(=O)OCC)CS1)=C(\C)O	> 631	> 631 µM	–
O=C1NS(=O)(=O)c2ccccc21.[Cu+2]	> 1150	58.9 µM	–
CCOP(=O)(OCC)/C(C#N)=C/c1ccc(N(C)C)cc1	> 813	437 µM	–
C#CCCOC(=O)CC1=C(C)/C(=C/c2ccc(S(C)=O)cc2)c2ccc(F)cc21 (centres undefined)	> 200	14.8 µM	–
c1ccc(N=C2SC(c3ccccc3)(c3ccccc3)c3ccccc32)cc1	> 200	> 200 µM	–
CCCCCCCCCCCCCCCCCC(=O)OC(COC(=O)COCCOCCOCCOCCOCCOC)COP(=O)([O-])OCC[N+](C)(C)C (centres undefined)	–	–	inactive
CC(=O)NC1=C(C)C(=O)c2c(nc3n2CCC3OC(=O)c2ccccc2)C1=N (centres undefined)	> 200	0.912 µM	–
Cc1cscc(C)c1=S	> 195	> 195 µM	–

Structure (SMILES)	EC50 [µM]	IC50	outcome
CCCOCC(=O)OC	> 1910	> 1910 µM	–
CSC(SC)(C(=O)O)c1cc(-c2c(Cl)cccc2Cl)no1	> 81.3	70.8 µM	–
O=c1[nH]nc(NCc2ccccc2)c2nnn(Cc3ccccc3)c12	> 200	> 200 µM	–
CC12CCC(C)(O1)C1C(=O)N(c3nccs3)C(=O)C12 (centres undefined)	> 891	> 891 µM	–
CC(=O)NCC1(c2ccccc2)CCN(CC2COc3ccccc3O2)CC1 (centres undefined)	> 200	> 200 µM	–
O=C(CCc1nc(=S)[nH][nH]1)Nc1cccc(C(F)(F)F)c1	> 22.9	> 22.9 µM	–
CCOc1ccc(NC(=O)C(=O)C(/C(=N/N)C(=O)OC)c2nc3ccc([N+](=O)[O-])cc3[nH]c2=O)cc1 (centres undefined)	> 14.5	> 14.5 µM	–
CN1CCc2cc3c4cc2C1Cc1ccc(cc1)Oc1cc(ccc1O)CC1c2c(cc(O)c(c2O4)O3)CCN1C (centres undefined)	–	–	inactive
Cc1c(C2(c3cc(Br)c(O)c(Br)c3C)OS(=O)(=O)c3ccccc32)cc(Br)c(O)c1Br	–	–	inactive
Clc1cc(Cl)cc(C2SCc3nc4ccccc4n32)c1 (centres undefined)	–	–	inactive
O=C1CCC2CN3CCc4c([nH]c5ccccc45)C3CC2C1 (centres undefined)	> 45.7	–	–
CC(=O)Nc1ccc(C(=O)CCC(NC(C)=O)C(=O)O)cc1 (centres undefined)	> 200	> 200 µM	–
N/N=C1\C(=O)N(Cc2ccccc2)C(=O)C1C(=O)NCc1ccccc1 (centres undefined)	> 7.76	> 7.76 µM	–
COc1ccc(N(C)Sc2ccccc2)cc1	> 200	38 µM	–
Oc1cccc2c(Br)ccnc12	> 20	5.13 µM	–
CN(NC1=NCCO1)c1ccc2ccccc2c1	> 200	28.8 µM	–
CCCCc1ccc(OC2OC(COC(C)=O)C(OC(C)=O)C(OC(C)=O)C2OC(C)=O)cc1 (centres undefined)	> 93.3	49 µM and > 93.3 µM	–
Cc1nn(C(=O)c2ccncc2)c2c1C(c1cccc([N+](=O)[O-])c1)SC(N)=N2 (centres undefined)	–	–	inactive
Cc1cccc(NC(=O)CC(=O)N2N=C(N(CCC#N)c3ccc(Cl)cc3)CC2c2ccccc2)c1 (centres undefined)	> 100	> 100 µM	–
CC(=O)N(C(C)=O)C1=C2c3ccccc3N(S(=O)(=O)c3ccccc3)C2n2c(=O)n(-c3ccccc3)c(=O)n2C1 (centres undefined)	> 9.33	> 9.33 µM	–
CCOC(=O)CN1CCNCCN(CC(=O)OCC)CCNCC1	> 100	9.77 µM	–
O=C(O)/C=N\Nc1nc2ccccc2[nH]1	> 200	> 200 µM	–
CCOC(=O)c1ccc(NC(=O)Nc2ncc(Cl)cc2Cl)cc1	> 200	> 200 µM	–

Structure (SMILES)	EC50 [µM]	IC50	outcome
COc1ccc2c(c1)OC(C)(C)C1c3cc(O)c(OCc4ccccc4)cc3OC21 (centres undefined)	> 200	16.6 µM	–
Cc1c(-c2ccccc2)sc(/N=C/c2cc(Br)cc(Br)c2O)c1C#N	> 20	0.708 µM	–
CN1C(=O)N/C(=N/c2nc(Cc3ccc4c(c3)OCO4)cn2C)C1=O	> 1.58	> 1.58 µM	–
CN(C)CC1Cc2ccsc2C1=O (centres undefined)	> 155	2.63 µM	–
O=c1[nH]c2nn(-c3ccccc3)cc2c(=O)n1OS(=O)(=O)c1ccccc1	> 200	> 200 µM	–
N#Cc1ccccc1/C=N/O	> 35.5	> 35.5 µM	–
Cc1ccc2cccc3c2c1CC1(C3=O)S(=O)(=O)OCCOS1(=O)=O	> 200	> 200 µM	–
CN1C(=O)n2c(nc3ccccc32)C(N=[N+]=[N-])(N=[N+]=[N-])C1=O (centres undefined)	70.8	> 100 µM	–
CN1C=COC1N=C1CCCCC1 (centres undefined)	> 200	> 200 µM	–
COc1ccc2nc3ccccc3c(NCCCN(C)C)c2c1[N+](=O)[O-]	> 200	0.589 µM	–
C/C(=N\NC(=S)N1CCN(c2ccccn2)CC1)c1cccc(C)n1	> 42.7	0.0155 µM	–
CC(C)OP(=O)(OC(C)C)/C(=N/Nc1ccccc1[N+](=O)[O-])NNC(=O)c1ccccc1	> 1.17	> 1.17 µM	–
O=C(O)CCC(=O)OCCNCCOC(=O)CCC(=O)O	–	–	inactive
COC1OC2COC(c3ccccc3)OC2C(OS(=O)(=O)c2ccc(C)cc2)C1OS(=O)(=O)c1ccc(C)cc1 (centres undefined)	–	–	inactive
COc1cc2c(cc1OC)[C@@](C)(C(O)C(O)C(C)(C)O)NCC2 (some centres undefined)	> 200	> 200 µM	–
c1csc(-c2ccsc2-c2cccs2)c1	> 200	97.7 µM	–
CC(=O)Nc1ccc(C(=O)NN2C(=O)CSC2c2ccccc2)cc1 (centres undefined)	> 72.4	> 72.4 µM	–
Cc1cccc(C)c1NC(=O)CCC(=O)CC(=O)C(C)C	> 123	> 123 µM	–
N#Cc1c(NC(=O)C(F)(F)F)sc2c3c(=O)c4ccccc4c(=O)c=3oc3ccccc3c12	> 100	17.4 µM	–
C[C@]12CCC(=O)C=C1CC[C@@H]1C2CC[C@@]2(C)C1CC[C@@H]2OC(=O)C12OC1CCC2=O (some centres undefined)	> 200	10.7 µM	–
CC/C=C\C/C=C\C/C=C\CCCCCCCC(=O)OCC(O)CO (centres undefined)	> 28.2	> 28.2 µM	–
